What all share (assay): NCI tumour cell line growth inhibition, 48 h
In assay [1] the test system is MOLT-4 leukemia.
Assay [2] has as its system HOP-92 NSCLC.
Assay [3] deals with ACHN renal.
Assay [4] deals with MCF7 breast.
The test system of assay [5] is PC-3 prostate.
The subject of assay [6] is COLO 205 colon.
The test system of assay [7] is OVCAR-5 ovarian.
The test system of assay [8] is HS 578T breast.
The test system of assay [9] is T-47D breast.
Assay [10] deals with HCT-116 colon.

Values joined by “and” are separate entries in the source; they are usually repeats but may differ in a detail not shown here. Identical values can stand only once.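 Five concentrations, 48 hours, 96-well plates. GI50 is the concentration that inhibits growth by half. The concentration for full growth arrest is given as TGI.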 Bounds are passed on as bounds.

As for `NCCN1C(=O)c2ccccc2C1(O)c1ccc(Cl)cc1` (stereo not drawn), the TGI worked out at 38.8 µM in [1]; 34.4 µM in assay [2]; 59.3 µM in [3]; 32.6 µM in assay [4]; 50 µM in assay [5]; 39.4 µM in assay [6]. The TGI worked out at 39.8 µM in assay [7], 33.1 µM in [8], 37.8 µM in [9] and 31.7 µM in assay [10].
For `Cc1ccc(C)c2c(N=Nc3ccccc3[N+](=O)[O-])c(O)[nH]c12`, the TGI in assay [1], in assay [2], in assay [3], in assay [4], in assay [5] and in assay [6] was above 100 µM each time. The TGI in assay [7], in assay [8], in assay [9] and in assay [10] was above 100 µM throughout.
Consider `COC(=O)/C(=C\c1c(-c2ccccc2)[nH]c2ccccc12)S(C)(=O)=O`, for which the GI50 is 4.72 µM in assay [1]; 6.56 µM in [2]; 9.18 µM in [3]; 2.92 µM in [4]; 4.16 µM in assay [5]; 4.39 µM in assay [6]. For the same molecule, the GI50 is 19.6 µM in [7], 3.46 µM in [8], 2.82 µM in assay [9] and 4.2 µM in assay [10]. Also, the TGI was above 100 µM in [1]; 50.2 µM in assay [2]; 23.8 µM in [3]; 18.2 µM in assay [4]; above 100 µM in assay [5]; 18.5 µM in assay [6]. Besides, the TGI was 49.8 µM in assay [7], above 100 µM in assay [8], 30.8 µM in [9] and 21.4 µM in assay [10].
With `CNC(=O)c1cc2c(Oc3ccc(NC(=S)NC(=O)Cc4ccccc4)cc3F)ccnc2cc1OC`, the GI50 is 3.47 µM in assay [1]; 1.67 µM in [2]; 3.5 µM in assay [3]; above 100 µM in assay [4]; 16.7 µM in [5]; 5.37 µM in [6]. In addition, the GI50 in assay [7] was above 36.1 µM; in assay [8], 1.29 µM; in assay [9], 2.8 µM; in [10], 59.5 µM. In addition, the TGI in assay [1], in [2], in assay [3], in [4], in assay [5] and in [6] was above 100 µM in each case. The TGI was above 100 µM in [7], 8.05 µM in assay [8], above 100 µM in assay [9] and above 100 µM in assay [10].
Regarding `CC1(C)N=C(N)N=C(N)N1c1ccc(Cl)c(Cl)c1`, the GI50 in assay [1] is 1.38 µM; in assay [2] it was 47.1 µM; in assay [3], 0.683 µM; in assay [4] it was 0.388 µM; in assay [5], 0.157 µM; in assay [6], 3.56 µM. The GI50 in [7] was 0.252 µM; in assay [8], above 27.3 µM; in assay [9], above 45.8 µM; in [10] it was 0.0549 µM. The TGI in assay [1], in assay [2], in [3], in assay [4], in [5] and in [6] was above 100 µM each time. Besides, the TGI in assay [7], in [8], in assay [9] and in [10] was above 100 µM each time.
For the molecule `Cc1cc2c(=O)[nH]c(N)nc2nc1C`, the TGI in assay [2], in assay [3], in assay [4], in assay [5], in [6] and in [7] was above 100 µM in each case. The TGI in assay [8], in assay [9] and in assay [10] was above 100 µM each time.
For `CN(C)CCNc1nc2ccccc2c2occc12`, the GI50 in [1] is 20.3 µM; in assay [2], 54.1 µM; in assay [3] it was 28.2 µM; in [4], 32.4 µM; in assay [5], 36 µM; in assay [6], 25.2 µM. Moreover, the GI50 in assay [7] is 37.2 µM; in [8], 99.4 µM; in assay [9] it was above 100 µM; in [10], 34.1 µM. For the same molecule, the TGI in assay [1] is above 100 µM; in assay [2] it was above 100 µM; in assay [3], 85.8 µM; in assay [4] it was above 100 µM; in assay [5], above 100 µM; in assay [6] it was above 100 µM. Further, the TGI in [7] was 88.4 µM; in [8], above 100 µM; in assay [9], above 100 µM; in assay [10], above 100 µM.
Consider `COc1ccc(-c2nc(-c3nc4ccc(C(F)(F)F)cc4[nH]3)c3ccccn23)cc1`, for which the GI50 in assay [1] was 2.81 µM; in assay [2] it was above 100 µM; in assay [3] it was 63.5 µM; in [4] it was 26.3 µM; in [5] it was 4.73 µM; in assay [6] it was above 100 µM. Further, the GI50 in [7] is above 100 µM; in [8], above 100 µM; in assay [9], 5.33 µM; in [10], 26.1 µM. In addition, the TGI in [1], in assay [2], in [3], in assay [4], in [5] and in [6] was above 100 µM each time. For the same molecule, the TGI in [7], in assay [8], in assay [9] and in [10] was above 100 µM throughout.
Turning to `Cc1cc2c(cc1C)[n+](Cc1ccc3ccccc3n1)cn2Cc1ccc2ccccc2n1`, the GI50 in assay [1] was 1.46 µM; in assay [2], 0.484 µM; in [3], 3.06 µM; in assay [5], 0.948 µM; in [6], 0.387 µM; in [7] it was 1.3 µM. Further, the results for the GI50 in assay [8], in assay [9] and in assay [10] were 1.94 µM, 0.393 µM and 0.407 µM, respectively. For the same molecule, the TGI amounted to 5.15 µM in assay [1]; 2 µM in assay [2]; 10.6 µM in assay [3]; 2.98 µM in assay [5]; 1.58 µM in [6]; 6.89 µM in assay [7]. The results for the TGI in assay [8], in [9] and in assay [10] were 5.48 µM, 2.93 µM and 1.74 µM, respectively.
For `C[C@]12CC[C@@H]3c4ccc(O)cc4CC[C@H]3[C@@H]1CC[C@@H]2NS(=O)(=O)c1ccc2ccccc2c1`, the GI50 in assay [1] was 3.37 µM; in [2], 1.83 µM; in assay [3], 2.95 µM; in assay [4], 3.36 µM; in assay [5], 2.75 µM; in assay [6] it was 1.94 µM. For the same molecule, the GI50 in assay [7] is 3.4 µM; in [8], 2.21 µM; in assay [9], 3.9 µM; in [10] it was 2.98 µM. Besides, the TGI in assay [1] is above 100 µM; in assay [2], 7.14 µM; in assay [3], 10.5 µM; in assay [4] it was 9.48 µM; in assay [5] it was 17.3 µM; in assay [6] it was 3.37 µM. Besides, the TGI in assay [7] came out at 13.4 µM; in assay [8] it was 7.14 µM; in assay [9] it was 16.3 µM; in assay [10], 10.6 µM.
Take `N#C/C(=C\c1cccc2cnccc12)N1N=NC2C=CC=CC21` (stereo not drawn): the GI50 in [1] is 3.21 µM; in assay [2], 0.532 µM; in assay [3], 2.5 µM; in [4], 0.557 µM; in assay [5], 2.76 µM; in assay [6] it was 3.48 µM. The GI50 in [7] was 4.66 µM; in [8] it was 2.46 µM; in assay [9], 0.582 µM. Further, the TGI is above 100 µM in [1]; 5.13 µM in [2]; above 100 µM in assay [3]; above 100 µM in [4]; above 100 µM in [5]; above 100 µM in [6]. The TGI in assay [7] was above 100 µM; in assay [8] it was 9.16 µM; in [9], 6.4 µM.
As to `CC(=O)NC1=C(Sc2ccc(Cl)cc2)C(=O)c2ccccc2C1=O`, the TGI in assay [1] was found to be 1.7 µM; in assay [2], 5.67 µM; in assay [3], 4.85 µM; in [4] it was 5.01 µM; in [5] it was 11.7 µM; in assay [6], 3.6 µM. The TGI in [7] was 23.9 µM; in assay [8], 61.6 µM; in assay [9] it was 4.95 µM.
Regarding `C#CC(=O)OCC#CCOC(=O)C#C`, the TGI is 34.8 µM in assay [2]; 33 µM in assay [3]; 44.2 µM in assay [4]; above 100 µM in assay [5]; 32.4 µM in assay [6]; 86.5 µM in [8]. The results for the TGI in [9] and in assay [10] were 60.2 µM and 35.7 µM, respectively.
As for `Cc1cn2c(/C=N/N=C(N)N)c(-c3ccsc3)nc2s1`, the GI50 in [1] is above 100 µM; in assay [3] it was 3.08 µM; in assay [4], 3.43 µM; in assay [5], 7.5 µM; in [6] it was 3.18 µM; in [7] it was 15.1 µM. Further, the GI50 was 13 µM in [8], 2.7 µM in [9] and 3.14 µM in assay [10]. Further, the TGI is above 100 µM in assay [1]; 13.6 µM in [3]; 14.8 µM in assay [4]; 20.1 µM in assay [5]; 15 µM in [6]; 28.7 µM in [7]. Moreover, the values for the TGI in assay [8], in assay [9] and in assay [10] were 37.8 µM, 7.86 µM and 12.6 µM, respectively.
With `CCc1ncnc2cc(OCC3CO3)c(OC)cc12` (stereo not drawn), the TGI in [2] was 26.7 µM; in [3], 21.6 µM; in assay [4], above 42.7 µM; in [5], above 100 µM; in assay [6], 21.8 µM; in assay [7] it was above 100 µM. Besides, the results for the TGI in [8], in assay [9] and in [10] were 42 µM, above 100 µM and above 33.7 µM, respectively.
`COc1ccc(/C(=N/O)c2cc(OC)c(OC)c(OC)c2)c(OC)c1N`: the GI50 in assay [1] was 6.94 µM; in [2], above 100 µM; in assay [3], 17.8 µM; in assay [4], 3.26 µM; in assay [5] it was 3.97 µM; in [6] it was 3 µM. Also, the GI50 in assay [8] was 4.74 µM; in assay [9], 26.2 µM; in [10], 3.41 µM. For the same molecule, the TGI is above 100 µM in [1]; above 100 µM in assay [2]; above 100 µM in assay [3]; above 100 µM in assay [4]; above 100 µM in assay [5]; 13.5 µM in assay [6]. The TGI in [8], in [9] and in assay [10] was above 100 µM each time.
With `COc1ccc2[nH]c(O)c(/C=c3/ccc4c(c3)N=C(c3ccc(F)cc3)N=4)c2c1`, the GI50 is 13.9 µM in assay [1]; 2.06 µM in assay [2]; 4.53 µM in [4]; 4.64 µM in [5]; 5.13 µM in assay [6]; 7.1 µM in assay [7]. Besides, the GI50 is 2.73 µM in [8], 2.01 µM in assay [9] and 1.63 µM in [10]. Besides, the TGI is above 100 µM in assay [1]; 8.75 µM in [2]; 93.3 µM in assay [4]; 88.6 µM in assay [5]; above 100 µM in assay [6]; 97.9 µM in assay [7]. Further, the TGI in assay [8] was 9.4 µM; in assay [9], 4.99 µM; in [10], 3.37 µM.
On to `O=C1N[C@H]2[C@H](O)[C@H](O)[C@@H](O)[C@H](O)[C@@H]2c2cc3c(c(O)c21)OCO3`, for which the GI50 in [1] was 0.196 µM and 0.575 µM; in assay [2], 0.333 µM; in assay [4] it was 0.0208 µM; in [5], 0.0381 µM and 0.0661 µM; in assay [6], 12.8 µM; in assay [7], 0.657 µM and 1.16 µM. In addition, the GI50 in [8] was 0.021 µM and 0.0403 µM; in assay [10], 0.129 µM and 0.253 µM. Also, the TGI in assay [5] is 0.787 µM and 0.48 µM; in [7], 9.37 µM and 1.22 µM; in assay [8], 0.0941 µM and 0.0978 µM; in [9], 0.155 µM; in assay [10] it was 0.682 µM and 1.42 µM and 0.144 µM.

The values above are taken from PubChem BioAssay (NCI).
